From paper PMC9504018, “The hEag1 K^+ Channel Inhibitor Astemizole Stimulates Ca^2+ Deposition in SaOS-2 and MG-63 Osteosarcoma Cultures” (International Journal of Molecular Sciences, 2022)

Target: T1, hEag1 (Kv10.1) (Homo sapiens, UniProt O95259)
T1 construct: gene KCNH1
T1 sequence (O95259 1-989): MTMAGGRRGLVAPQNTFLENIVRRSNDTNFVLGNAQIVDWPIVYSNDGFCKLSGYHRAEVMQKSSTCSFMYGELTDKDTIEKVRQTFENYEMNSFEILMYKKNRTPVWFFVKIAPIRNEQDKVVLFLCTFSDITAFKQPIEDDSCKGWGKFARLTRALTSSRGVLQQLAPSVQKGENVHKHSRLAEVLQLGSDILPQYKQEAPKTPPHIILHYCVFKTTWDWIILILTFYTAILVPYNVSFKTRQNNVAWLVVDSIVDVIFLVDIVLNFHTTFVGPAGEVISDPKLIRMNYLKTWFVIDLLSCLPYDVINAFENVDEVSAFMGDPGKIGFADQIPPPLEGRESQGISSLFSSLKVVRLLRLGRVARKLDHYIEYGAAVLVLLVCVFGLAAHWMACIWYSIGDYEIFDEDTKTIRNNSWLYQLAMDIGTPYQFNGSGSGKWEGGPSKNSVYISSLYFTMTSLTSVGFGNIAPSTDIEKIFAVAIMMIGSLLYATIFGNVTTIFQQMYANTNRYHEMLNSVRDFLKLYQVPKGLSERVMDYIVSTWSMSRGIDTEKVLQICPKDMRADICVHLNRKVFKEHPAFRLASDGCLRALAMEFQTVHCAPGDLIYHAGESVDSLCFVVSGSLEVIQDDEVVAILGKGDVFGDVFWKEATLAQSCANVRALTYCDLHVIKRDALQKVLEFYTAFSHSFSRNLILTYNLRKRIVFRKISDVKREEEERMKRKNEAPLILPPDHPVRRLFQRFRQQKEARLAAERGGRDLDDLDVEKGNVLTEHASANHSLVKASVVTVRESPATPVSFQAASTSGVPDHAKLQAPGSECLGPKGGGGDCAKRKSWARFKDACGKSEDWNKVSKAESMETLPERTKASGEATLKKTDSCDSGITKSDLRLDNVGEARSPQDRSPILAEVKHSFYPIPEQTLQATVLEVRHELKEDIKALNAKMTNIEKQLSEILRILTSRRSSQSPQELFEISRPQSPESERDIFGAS
Assay: whole-cell patch clamp of the endogenous current in SaOS-2 cells, six-dose concentration-response
Type: cell-based

SMILES: COc1ccc(CCN2CCC(Nc3nc4ccccc4n3Cc3ccc(F)cc3)CC2)cc1 [astemizole]
- IC50: ~135 nM
